Measured values as given in patent US5015637A, “Pyrido[3,4-b]pyrrolo[1,2-e][1,4,5]oxadiazepines” (Hoechst-Roussel Pharmaceutical Inc., priority 1990, dated 1991).

Tested on: Phenylquinone-Induced Writhing in Mice
Test: Inhibition of Phenylquinone-Induced Writhing in Mice (PQW)
Format: in vivo, mice (male CD-1 Charles River)
Procedure: Compounds I of the present invention are also useful as analgesic agents due to their ability to alleviate pain in mammals. […] Exptl. Biol. Med., 95, 729 (1957)].
Inhibition of Phenylquinone-Induced Writhing in Mice (PQW)
A 0.125% concentration of phenyl-p-benzoquinone in a 5% aqueous solution of ethyl alcohol is administered to mice (10 mL/kg, ip). This produces a characteristic "writhe" which is defined as an inward rotation of one or more feet with twisting and turning of the trunk, drawing in of the abdominal wall, lordosis, and arching of the back. A total of 28 male CD-1 Charles River mice (18-30 g) are employed for a time-response. Animals receive food and water ad libitum during their stay in the animal quarters prior to testing. Compounds are tested at 20 mg/kg, sc and are prepared with distilled water, and if insoluble one drop of Tween-80, a surfactant, is added. Compounds are administered in a dosage volume of 10 mL/kg.
Twenty mice (five per group) are administered the test compound at various pretreat time (e.g., 15, 30, 45, and 60 min) prior to phenylquinone injection. Control animals (two per group) receive an equal volume of vehicle. After the administration of phenylquinone, the mice are placed separately into 1-L beakers, and 5 min are allowed to elapse. The mice are then observed for a period of 10 min, and the number of writhes is recorded for each animal. The formula for computing percent inhibition is [formula]
The time period with the maximum percent of inhibition is considered the peak time. A dose-response is reserved for interesting compounds or those which inhibit writhing by 70% or more. A dose-response is run in the same manner as a time-response except 10 animals per group are tested at the peak time of drug activity. Fifty animals, divided among four drug groups and one vehicle control group, are employed. The mice are normally given four doses of drug, each twice the amount of the preceding dose. An ED50 is calculated by a computer linear regression analysis.

SMILES: CC(C)=CCN1CCC2(C)c3cc(O)ccc3CC1C2C (stereo not drawn) [Pentazocine, reference compound]
- % Inhibition of Writhing (at the dose of 1.3 mg/kg, s.c. (footnote *)): 50%

SMILES: CN1c2ccncc2OCc2cccn21 [5-Methyl-5H,10H-pyrido[3,4-b]pyrrolo[1,2-e][1,4,5]-oxadiazepine]
- % Inhibition of Writhing @ 20 mg/kg, s.c.: 58%

SMILES: CN1CCC(C2Oc3cnccc3N(C)n3cccc32)CC1 (stereo not drawn) [5-Methyl-10-(1-methyl-4-piperidinyl)-5H,10H-pyrido[3,4-b]pyrrolo[1,2-e][1,4,5]oxadiazepine]
- % Inhibition of Writhing @ 20 mg/kg, s.c.: 47%
